Source: patent publication US8952042B2, “FXR (NR1H4) binding and activity modulating compounds” (Phenex Pharmaceuticals AG, priority 2009, dated 2015)

What was measured:
[1] = target: T1, FXR ligand binding domain (Homo sapiens, UniProt Q96RI1); experiment: Mammalian One Hybrid (M1H) Gal4 reporter assay in HEK293 cells; assay type: cell-based; conditions: potency range
T1 construct: expressed in transfected cells; host or cells: HEK293 cells (DSMZ), transient transfection of pCMV-BD-FXR-LBD
T1 sequence (Q96RI1 187-472 isoform Q96RI1-2): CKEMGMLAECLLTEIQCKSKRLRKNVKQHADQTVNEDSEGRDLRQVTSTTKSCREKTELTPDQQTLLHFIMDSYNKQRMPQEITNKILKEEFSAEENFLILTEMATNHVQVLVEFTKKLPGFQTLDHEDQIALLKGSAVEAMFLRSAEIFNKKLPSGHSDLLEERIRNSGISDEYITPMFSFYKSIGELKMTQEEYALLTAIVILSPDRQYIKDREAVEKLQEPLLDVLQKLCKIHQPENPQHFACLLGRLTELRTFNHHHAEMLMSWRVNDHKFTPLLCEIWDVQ
Protocol: Determination of a ligand mediated Gal4 promoter driven transactivation to quantify ligand binding mediated activation of FXR was performed as follows: The cDNA part encoding the FXR ligand binding domain was cloned into vector pCMV-BD (Stratagene) as a fusion to the yeast GAL4 DNA binding domain under the control of the CMV promoter. The amino acid boundaries of the ligand binding domain were amino acids 187-472 of Database entry NM_005123 (RefSeq). The plasmid pFR-Luc (Stratagene) was used as the reporter plasmid, containing a synthetic promoter with five tandem repeats of the yeast GAL4 binding sites, driving the expression of the Photinus pyralis (American firefly) luciferase gene as the reporter gene. In order to improve experimental accuracy the plasmid pRL-CMV (Promega) was cotransfected. pRL-CMV contains the constitutive CMV promoter, controlling the expression of the Renilla reniformis luciferase. All Gal4 reporter gene assays were done in HEK293 cells (obtained from DSMZ, Braunschweig, Germany) grown in MEM with L-Glutamine and Earle's BSS supplemented with 10% fetal bovine serum, 0.1 mM nonessential amino acids, 1 mM sodium pyruvate, and 100 units Penicillin/[…] per mL at 37° C. in 5% CO2. Medium and supplements were obtained from Invitrogen. For the assay, […] were plated per well in 96 well plates in 100 μL per well MEM without Phenol Red and L-Glutamine and with Earle's BSS supplemented with 10% charcoal/dextran treated FBS (HyClone, South Logan, Utah), 0.1 mM nonessential amino acids, 2 mM glutamine, 1 mM sodium pyruvate, and 100 units Penicillin/[…] per mL, incubated at 37° C. in 5% CO2. The following day the cells were >90% confluence. Medium was removed and cells were transiently transfected using 20 μL per well of a OptiMEM—polyethylene-imine-based transfection-reagent (OptiMEM, Invitrogen; Polyethyleneimine, Aldrich Cat No. 40, 827-7) including the three plasmids described above. MEM with the same composition as used for plating cells was added 2-4 h after addition of transfection mixture. Then compound stocks, prediluted in MEM were added (final vehicle concentration not exceeding 0.1%). Cells were incubated for additional 16 h before firefly and renilla luciferase activities were measured sequentially in the same cell extract using a Dual-Light-Luciferase-Assay system (Dyer et al., Anal. Biochem. 2000, 282, 158-161). All experiments were done in triplicates.

[2] = Pharmacokinetics in rat after intravenous administration 1 mg/kg; assay type: in vivo, Male Sprague Dawley Rat; conditions: for plasma levels as compared to GW4064: Male Sprague Dawley Rat, Table 3; for AUC(0-inf) / MRT last / Tmax / Vd / half-life / concentration at 0.083 hr / concentration at 0.25 hr / concentration at 0.5 hr / concentration at 1 hr / concentration at 2 hr / concentration at 4 hr / Cmax / AUC(0-t): male, Sprague Dawley, plasma; for AUC(0-inf) / MRT last / Tmax / Vd / half-life / concentration at 0.083 hr / concentration at 0.25 hr / concentration at 0.5 hr / concentration at 1 hr / concentration at 2 hr / concentration at 4 hr / AUC(0-t): iv; for AUC(0-inf) / MRT last / Tmax / Vd / half-life / concentration at 0.083 hr / concentration at 0.25 hr / concentration at 0.5 hr / concentration at 1 hr / concentration at 2 hr / concentration at 4 hr / Cmax / AUC(0-t) / AUC Extrapolated / CI: rat; for AUC(0-inf) / MRT last / Tmax / Vd / half-life / concentration at 0.083 hr / concentration at 0.25 hr / concentration at 0.5 hr / concentration at 1 hr / concentration at 2 hr / concentration at 4 hr / Cmax / AUC Extrapolated / CI: 1 mg/kg i.v.; for concentration at 0.5 hr: 0.50 hr; for Cmax: footnote: Co for Intravenous; for AUC(0-t): 1 mg/kg, read-out: #AUC(0-8)
Protocol: (§1) Compounds were applied perorally by gavage at 5 mg/kg each and by i.v. Injection at 1 mg/kg each to male 12 weeks old C57BI/6J or Sprague Dawley rats and plasma concentrations of the test items were determined by LC-MS/MS after time points as indicated. In the case of Cynomolgus monkeys ([…]), the dose was adjusted to 12 mg/kg p.o., no i.v. injection was given (FIG. 1a, 1b and Table 2).
(§2) A solution of 2.5 mg/mL of each test item was produced by diluting them in the vehicle, 0.5% Hydroxypropyl-Methylcellulose (w/v) in 20 mM phosphate buffered saline pH 7.4. The solutions were stirred overnight at room temperature and heated to 40° C. for 10 minutes, resulting in fully homogenous suspension. The application was performed by administrating the solution perorally to the mice, with an application volume of 5 mL/kg. For each time point three mice or rats were used. In case of the Cynomolgus monkeys blood samples were obtained by repeated vein puncture. Blood samples were treated with L1-heparin during collection procedure and stored on ice until centrifugation at 645 g (5 min, 4° C.). Plasma was harvested and kept at −20° C. until being assayed. To 50 μL of plasma sample 6 μL acetonitrile containing an internal standard was added. Samples were vigorously shaken and centrifuged for 10 minutes at 6000 g and 20° C. An aliquot of the particle-free supernatant was transferred to 200 μL sampler vials and subsequently subjected to LC MS/MS for quantification.

[3] = Pharmacokinetics in rat after oral administration 5 mg/kg; assay type: in vivo, Male Sprague Dawley Rat; conditions: for AUC(0-inf) / Cmax / MRT last / Tmax / half-life / bioavailability / AUC(0-t): male, Sprague Dawley, plasma; for AUC(0-inf) / Cmax / MRT last / Tmax / half-life / AUC(0-t) / AUC Extrapolated / CI / Vd: oral 5 mg/kg; for bioavailability: oral 5 mg/kg vs i.v. 1 mg/kg, read-out: Absolute Bioavailability; for AUC(0-t): read-out: AUC(0-8)
Protocol: as §1, §2

[4] = Plasma levels in mice after single dose gavage 5 mg/kg; assay type: in vivo; conditions: C57/bl6 mice, FIG. 1c, 5 mg/kg gavage
Protocol: Data represent the mean of 3 individual mouse plasma measurements.
as §1
as §2, with “To 50 μL of plasma sample 6 μL acetonitrile containing an internal standard was added. Samples were vigorously shaken and centrifuged for 10 minutes at 6000 g and 20° C.” left out

EC50 [1] [nM]	plasma levels as compared to GW4064 [2]	AUC(0-inf) [2] [ng·h/mL]	MRT last [2] [min]	Tmax [2] [min]	Vd [2] [L/kg]	half-life [2] [min]	concentration at 0.083 hr [2] [ng/mL]	concentration at 0.25 hr [2] [ng/mL]	concentration at 0.5 hr [2] [ng/mL]	concentration at 1 hr [2] [ng/mL]	concentration at 2 hr [2] [ng/mL]	concentration at 4 hr [2] [ng/mL]	Cmax [2] [ng/mL]	AUC(0-t) [2] [ng·h/mL]	AUC Extrapolated [2] [%]	CI [2] [mL/min/kg]	AUC(0-inf) [3] [ng·h/mL]	Cmax [3] [ng/mL]	MRT last [3] [min]	Compound	further results
10 to 100	substantially higher	923	49.8	4.98	1.79	68.4	1190	749	451	202	78.9	44.5	1500	850	7.94	18.0508	406	93.1	178	O=C(O)c1cccc(C2CC2c2ccc(OCc3c(-c4c(Cl)cccc4Cl)noc3C3CC3)cc2Cl)c1 (racemic) [Example 4, 3-(2-(2-chloro-4-((5-cyclopropyl-3-(2,6-dichlorophenyl)isoxazol-4-yl)methoxy)phenyl)-cyclopropyl)benzoic acid]	Tmax [3]: 30 min; half-life [3]: 245 min; bioavailability [3]: 8.8%; AUC(0-t) [3]: 287 ng·h/mL; AUC Extrapolated [3]: 33.93%; CI [3]: 205.0343 mL/min/kg; Vd [3]: 72.49139 L/kg; plasma levels as compared to GW4064 [4]: substantially higher
10 to 100	substantially higher	440	46.8	4.98	4.82	88.2	661	359	174	84.6	37.7	19.2	895	399	9.28	37.8772	681	210	145	O=C(O)c1ccc(C2CC2c2ccc(OCc3c(-c4c(Cl)cccc4Cl)noc3C3CC3)cc2Cl)cc1 (racemic) [Example 12, 4-(2-(2-chloro-4-((5-cyclopropyl-3-(2,6-dichlorophenyl)isoxazol-4-yl)methoxy)phenyl)cyclopropyl)benzoic acid]	Tmax [3]: 30 min; half-life [3]: 167 min; bioavailability [3]: 30.9%; AUC(0-t) [3]: 570 ng·h/mL; AUC Extrapolated [3]: 16.32%; CI [3]: 122.39 mL/min/kg; Vd [3]: 29.44442 L/kg; plasma levels as compared to GW4064 [4]: substantially higher
